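In this assay, cells in 96-well plates receive the compound at five concentrations for 48 hours. Endpoints are linearly interpolated between the surrounding concentrations. GI50 marks 50% less growth. Definition used: TGI = concentration required for complete inhibition of growth.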
How the values were obtained:
Assay in all cases: NCI-60 cell line screen, 48 h
SK-MEL-2 melanoma = system: SK-MEL-2 melanoma
HOP-62 NSCLC = system: HOP-62 NSCLC
A498 renal = system: A498 renal
SK-MEL-5 melanoma = system: SK-MEL-5 melanoma
COLO 205 colon = system: COLO 205 colon
K-562 leukemia = system: K-562 leukemia
IGROV1 ovarian = system: IGROV1 ovarian
RXF 393 renal = system: RXF 393 renal
HL-60(TB) leukemia = system: HL-60(TB) leukemia
UACC-257 melanoma = system: UACC-257 melanoma
UO-31 renal = system: UO-31 renal
MDA-MB-231 breast = system: MDA-MB-231 breast
SW-620 colon = system: SW-620 colon
NCI-H522 lung = system: NCI-H522 lung
SNB-19 CNS = system: SNB-19 CNS
OVCAR-8 ovarian = system: OVCAR-8 ovarian
SK-MEL-28 melanoma = system: SK-MEL-28 melanoma
M14 melanoma = system: M14 melanoma
OVCAR-5 ovarian = system: OVCAR-5 ovarian
HCT-116 colon = system: HCT-116 colon
RPMI-8226 leukemia = system: RPMI-8226 leukemia
SNB-75 CNS = system: SNB-75 CNS
HCT-15 colon = system: HCT-15 colon
NCI/ADR-RES ovarian = system: NCI/ADR-RES ovarian
DU-145 prostate = system: DU-145 prostate
SK-OV-3 ovarian = system: SK-OV-3 ovarian
NCI-H23 lung = system: NCI-H23 lung
SN12C renal = system: SN12C renal
LOX IMVI melanoma = system: LOX IMVI melanoma
OVCAR-3 ovarian = system: OVCAR-3 ovarian
BT-549 breast = system: BT-549 breast
MALME-3M melanoma = system: MALME-3M melanoma
T-47D breast = system: T-47D breast
MCF7 breast = system: MCF7 breast
SF-539 CNS = system: SF-539 CNS
HOP-92 NSCLC = system: HOP-92 NSCLC
SF-268 CNS = system: SF-268 CNS
A549 NSCLC = system: A549 NSCLC
KM12 colon = system: KM12 colon
PC-3 prostate = system: PC-3 prostate
SF-295 CNS = system: SF-295 CNS
786-0 renal = system: 786-0 renal
TK-10 renal = system: TK-10 renal
U251 CNS = system: U251 CNS
MDA-MB-435 = system: MDA-MB-435
HT29 colon = system: HT29 colon
HS 578T breast = system: HS 578T breast
UACC-62 melanoma = system: UACC-62 melanoma
NCI-H460 lung = system: NCI-H460 lung
CAKI-1 renal = system: CAKI-1 renal
MOLT-4 leukemia = system: MOLT-4 leukemia
OVCAR-4 ovarian = system: OVCAR-4 ovarian
NCI-H226 lung = system: NCI-H226 lung
ACHN renal = system: ACHN renal
CCRF-CEM leukemia = system: CCRF-CEM leukemia
HCC-2998 colon = system: HCC-2998 colon

In the case of `O=C1/C(=C\c2ccc(F)cc2)CN(C(=O)c2ccc([N+](=O)[O-])cc2)C/C1=C\c1ccc(F)cc1`, the GI50 (SK-MEL-2 melanoma) is reported as 20.4 µM, the TGI (SK-MEL-2 melanoma) is reported as > 100 µM and the GI50 (HOP-62 NSCLC) is reported as 2.56 µM. For the same molecule, the TGI (HOP-62 NSCLC) was 7.85 µM, the GI50 (A498 renal) was 4.4 µM and the TGI (A498 renal) was 47 µM. The GI50 (SK-MEL-5 melanoma) was 1.69 µM, the TGI (SK-MEL-5 melanoma) was 3.84 µM and the GI50 (COLO 205 colon) was 3.17 µM. For the same molecule, the TGI (COLO 205 colon) was 12.7 µM, the GI50 (K-562 leukemia) was 0.915 µM and the TGI (K-562 leukemia) was > 43.2 µM. It also gave a GI50 (IGROV1 ovarian) of 2.67 µM, a TGI (IGROV1 ovarian) of 11 µM and a GI50 (RXF 393 renal) of 1.53 µM. For the same molecule, the TGI (RXF 393 renal) was 3.19 µM, the GI50 (HL-60(TB) leukemia) was 5.07 µM and the TGI (HL-60(TB) leukemia) was > 50.2 µM. For the same molecule, the GI50 (UACC-257 melanoma) was 4.17 µM, the TGI (UACC-257 melanoma) was 28.1 µM and the GI50 (UO-31 renal) was 1.69 µM. For the same molecule, the TGI (UO-31 renal) was 6.99 µM, the GI50 (MDA-MB-231 breast) was 2.38 µM and the TGI (MDA-MB-231 breast) was 7.92 µM. It also gave a GI50 (SW-620 colon) of 0.885 µM, a TGI (SW-620 colon) of 5.35 µM and a GI50 (NCI-H522 lung) of 4.3 µM. The TGI (NCI-H522 lung) was 30.7 µM, the GI50 (SNB-19 CNS) was 3.58 µM and the TGI (SNB-19 CNS) was 49.1 µM. For the same molecule, the GI50 (OVCAR-8 ovarian) was 2.97 µM, the TGI (OVCAR-8 ovarian) was > 100 µM and the GI50 (SK-MEL-28 melanoma) was 3.72 µM. The TGI (SK-MEL-28 melanoma) was 15.1 µM, the GI50 (M14 melanoma) was 2.28 µM and the TGI (M14 melanoma) was 6.81 µM. It also gave a GI50 (OVCAR-5 ovarian) of 4.6 µM, a TGI (OVCAR-5 ovarian) of 49.5 µM and a GI50 (HCT-116 colon) of 0.21 µM. The TGI (HCT-116 colon) was 0.448 µM, the GI50 (RPMI-8226 leukemia) was 0.302 µM and the TGI (RPMI-8226 leukemia) was 1.62 µM. The GI50 (SNB-75 CNS) was 7.66 µM, the TGI (SNB-75 CNS) was > 93 µM and the GI50 (HCT-15 colon) was 1.31 µM. The TGI (HCT-15 colon) was 4.31 µM, the GI50 (NCI/ADR-RES ovarian) was 3.65 µM and the TGI (NCI/ADR-RES ovarian) was > 100 µM. The GI50 (DU-145 prostate) was 4.31 µM, the TGI (DU-145 prostate) was > 51.8 µM and the GI50 (SK-OV-3 ovarian) was 3.7 µM. The TGI (SK-OV-3 ovarian) was 26.8 µM, the GI50 (NCI-H23 lung) was 3.6 µM and the TGI (NCI-H23 lung) was 15.6 µM. It also gave a GI50 (SN12C renal) of 2.19 µM, a TGI (SN12C renal) of 6.55 µM and a GI50 (LOX IMVI melanoma) of 0.373 µM. It also gave a TGI (LOX IMVI melanoma) of 1.47 µM, a GI50 (OVCAR-3 ovarian) of 2.69 µM and a TGI (OVCAR-3 ovarian) of 7.53 µM. The GI50 (BT-549 breast) was 2 µM, the TGI (BT-549 breast) was 4.41 µM and the GI50 (MALME-3M melanoma) was 8.22 µM. For the same molecule, the TGI (MALME-3M melanoma) was 45.9 µM, the GI50 (T-47D breast) was 6.61 µM and the TGI (T-47D breast) was > 100 µM. For the same molecule, the GI50 (MCF7 breast) was 0.389 µM, the TGI (MCF7 breast) was 4.19 µM and the GI50 (SF-539 CNS) was 2.93 µM. The TGI (SF-539 CNS) was 10.2 µM, the GI50 (HOP-92 NSCLC) was 11.4 µM and the TGI (HOP-92 NSCLC) was > 100 µM. The GI50 (SF-268 CNS) was 3.41 µM, the TGI (SF-268 CNS) was > 100 µM and the GI50 (A549 NSCLC) was 3.63 µM. The TGI (A549 NSCLC) was > 77.3 µM, the GI50 (KM12 colon) was 0.568 µM and the TGI (KM12 colon) was 2.19 µM. For the same molecule, the GI50 (PC-3 prostate) was 2.14 µM, the TGI (PC-3 prostate) was 14.5 µM and the GI50 (SF-295 CNS) was 2.99 µM. It also gave a TGI (SF-295 CNS) of 16.4 µM, a GI50 (786-0 renal) of 1.89 µM and a TGI (786-0 renal) of 4.32 µM. It also gave a GI50 (TK-10 renal) of 5.05 µM, a TGI (TK-10 renal) of 82.7 µM and a GI50 (U251 CNS) of 1.55 µM. For the same molecule, the TGI (U251 CNS) was 3.97 µM, the GI50 (MDA-MB-435) was 1.83 µM and the TGI (MDA-MB-435) was > 27.7 µM. It also gave a GI50 (HT29 colon) of 0.517 µM, a TGI (HT29 colon) of 3.52 µM and a GI50 (HS 578T breast) of 2.29 µM. The TGI (HS 578T breast) was 8.79 µM, the GI50 (UACC-62 melanoma) was 1.98 µM and the TGI (UACC-62 melanoma) was 6.27 µM. The GI50 (NCI-H460 lung) was 4.26 µM, the TGI (NCI-H460 lung) was > 40.4 µM and the GI50 (CAKI-1 renal) was 6.64 µM. For the same molecule, the TGI (CAKI-1 renal) was > 100 µM, the GI50 (MOLT-4 leukemia) was 2.7 µM and the TGI (MOLT-4 leukemia) was > 85.2 µM. For the same molecule, the GI50 (OVCAR-4 ovarian) was 3.61 µM, the TGI (OVCAR-4 ovarian) was > 100 µM and the TGI (NCI-H226 lung) was > 21.4 µM. The GI50 (ACHN renal) was 2.46 µM, the TGI (ACHN renal) was 7.49 µM and the GI50 (CCRF-CEM leukemia) was 1.64 µM. The TGI (CCRF-CEM leukemia) was > 42.6 µM, the GI50 (HCC-2998 colon) was 1.95 µM and the TGI (HCC-2998 colon) was 3.76 µM.

From PubChem BioAssay (NCI)
